Measurements from US12195551B2, “Combination of an ErbB-2/ErbB-3 bispecific antibody with endocrine therapy for breast cancer” (Merus N.V., priority 2017, dated 2025).

Assays:
HBCx-34 PDX model = details: model characterisation; cited from earlier work
HER2 = assay: Reverse phase protein array (RPPA) in MCF-7 tumor xenografts: HER2; format: in vivo, human; details: vs vehicle group, one-way ANOVA
Excerpt: FIG. 9. Reverse phase protein array (RPPA) in MCF-7 tumor xenografts treated with vehicle, MCLA-128, Fulvestrant, Tamoxifen, MCLA-128+ Fulvestrant or MCLA-128+ Tamoxifen. Proteins detected in this assay included (phospho)-Akt and (phospho)-HER3 (full data provided in Appendix 4). One-way ANOVA compared levels in all tumors derived from treatment groups with those derived from the PBS group. ** indicates P<0.01.
Tumors from groups 1-6 were collected when they had reached the maximum tolerated volume, or at the end of the experiment at day 39, which was 10 days after the last dose. Per treatment group, six tumors were included in the Reverse phase protein array (RPPA). The selection of tumors was made so that the average tumor size of the 6 specimens was close to that of the whole group. RPPA analysis was performed as follows: tumors were sectioned and placed on immunohistochemistry slides. Stromal and inflammatory content was macrodissected to purify for tumors cells. Protein lysates were prepared and protein content was quantified. […] Reverse phase protein array (RPPA) data were analyzed using one-way ANOVA to detect significant differences between the treatment groups and the vehicle group. […] Total ERK levels were increased in the single agent groups only, no differences were measured in the other groups or in the phosphorylated ERK analysis. […]

[1] = test system: MCF-7 human breast carcinoma; assay: Efficacy in nude mouse xenograft model of MCF-7 human breast carcinoma; format: in vivo
Description: MCLA-128 was evaluated as monotherapy and in combination with the SERM Tamoxifen and SERD Fulvestrant (Faslodex®) for efficacy in a nude mouse xenograft model of estrogen responsive MCF-7 human breast carcinoma. The study design also included tumor collection for downstream analysis.
Treatments began on D1 in mice with established subcutaneous MCF-7 tumors. The study endpoint was intended to be a tumor volume endpoint of 1000 mm3 45 days, whichever came first. […] Tumor regressions, mean tumor growth, and treatment tolerability also were considered.
The animals were fed ad libitum water (reverse osmosis, 1 ppm Cl) and NIH 31 Modified and Irradiated Lab Diet® consisting of 18.0% crude protein, 6.0% crude fat, and 5.0% crude fiber. The mice were housed on irradiated Enrich-o'Cobs™ Laboratory Animal Bedding in static 85 microisolators on a 12-hour light cycle at […] (68-72° F.) and 40-60% humidity.
Three days prior to tumor cell implantation, estrogen pellets (0.36 mg estradiol, 60-day release, Innovative Research of America, Sarasota, FL) were implanted subcutaneously between the scapulae of all test animals using a sterilized trocar.
Xenografts were initiated with cultured MCF-7 human breast carcinoma cells. Tumor cells were grown to mid-log phase in RPMI-1640 medium containing 10% fetal bovine serum, 100 units/mL penicillin G, 100 μg/mL streptomycin sulfate, 2 mM glutamine, 10 mM HEPES, 0.075% sodium bicarbonate and 25 μg/mL gentamicin. On the day of tumor cell implant, the cells were trypsinized, pelleted, and resuspended in phosphate buffered saline (PBS) at a concentration of 1×10e8 cells/mL. Each test mouse received 1×10e7 MCF-7 cells implanted subcutaneously in the right flank, and tumor growth was monitored as their mean volume approached the desired 100 to 150 mm3 range.
Nineteen days after tumor cell implantation, designated as D1 of the study, the mice were placed into six groups of 15 animals and four groups of six animals, Individual tumor volumes ranged from 75 to 196 mm3 and group mean tumor volumes of 134-137 mm3 on D1. Tumor weight was estimated with the assumption that 1 mg is equivalent to 1 mm3 of tumor volume.
MCLA-128 was stored at 4° C., was provided pre-formulated at 2.5 mg/mL and ready to dose as 25 mg/kg in a 10 mL/kg dose volume, and was protected from light during storage and handling. Tamoxifen (Sigma-25 Aldrich. Lot No. WXBB5732V) was received as a powder and was stored at 4° C. protected from light. Each week, a 5 mg/mL dose solution was prepared in corn oil, and each mouse received 0.2 mL for a dose of 1 mg/animal. The dose solution was stored at 4° C. Fulvestrant tradename Faslodex® (AstraZeneca, Lot No. LV032, LW466, and LX432) was received as 50 mg/mL stock solution that was stored at 4° C. Each dosing day, the stock was diluted in corn oil to 25 mg/mL, and each mouse received 0.2 mL for a dose of 5 mg/animal.
Groups 1 and 7 served as controls for efficacy and sampling, respectively, and received MCLA-128 vehicle intraperitoneally (i.p.) on D1, 4, 8, 11, 15, 18, 22, 25, and 29 and corn oil subcutaneously (s.c.) every other day for fifteen doses (qod×15). Groups 2 and 8 were administered MCLA-128 at 25 mg/kg, i.p., on the same schedule as MCLA-128 vehicle. Groups 3 and 9 were administered Faslodex® at 5.0 mg/animal, s.c., once weekly for five weeks (qwk×5). Group 4 was administered Tamoxifen at 1 mg/animal, s.c., qod×15. Groups 5 and 10 received MCLA-128 and Faslodex®, on the regimens described above. Group 6 received MCLA-128 and Tamoxifen on the regimens described above.
MCLA-128 was administered at a 10 mL/kg dose volume, scaled to the individual body weight of each animal.

Row | SMILES | response of the HBCx-34 PDX model (HBCx-34 PDX model) | Total HER2 levels (RPPA) (HER2) | % TGI (tumor growth inhibition) ([1]; D25, relative to the control group, MCLA-128 25 mg/kg i.p., Faslodex 5.0 mg/animal, Tamoxifen 1 mg/animal) | median tumor volume ([1]; D25, MCLA-128 25 mg/kg i.p., Faslodex 5.0 mg/animal s.c. qwk×5, Tamoxifen 1 mg/animal s.c. qod×15) | P relative to the control group ([1]; D25 tumor volumes, Mann-Whitney test) | anti-tumor efficacy / survival benefit (in words) ([1]; MCF-7 nude mouse xenograft model)
1 | CCCCCOC(=O)Nc1nc(=O)n([C@@H]2O[C@H](C)[C@@H](O)[C@H]2O)cc1F [Capecitabine] | responder | – | – | – | – | –
2 | CC(=O)O[C@@]12CO[C@@H]1C[C@H](O)[C@@]1(C)C(=O)[C@H](O)C3=C(C)[C@@H](OC(=O)[C@H](O)[C@@H](NC(=O)OC(C)(C)C)c4ccccc4)C[C@@](O)([C@@H](OC(=O)c4ccccc4)[C@H]21)C3(C)C [Docetaxel] | responder | – | – | – | – | –
3 | CC/C(=C(\c1ccccc1)c1ccc(OCCN(C)C)cc1)c1ccccc1 [Tamoxifen] | responder | significantly increased | 69% | 184 mm3 | < 0.001 | significantly reduced tumor growth
